Laboratory results as given in US11168095B2, “ASK1 inhibiting agents” (BIOGEN MA INC., priority 2017, dated 2021).
Like-named read-outs stand apart in the source and are kept apart here.

Tests used:
[1] = biological target: ASK1 T838 auto phosphorylation in HEK-293T cells (Homo sapiens (Human), UniProt Q99683); assay: ASK1 (AUTO PHOS T838) assay, MSD format; assay type: cell-based; conditions: HEK 293T cells transfected with ASK1-V5 full length plasmid, compounds 1 hr at 37° C.; read-out: IC50
Protocol: The plates were incubated at 37° C. overnight. Media on plates was changed to OPTI-MEM, serum free media and cells were transfected with 9 μg of ASK1-V5 tagged full length plasmid using Lipofectamine 2000 (Invitrogen) and the plates were incubated at 37° C. overnight. Cells were trypsinized, counted on Nexcellometer and plated into 96 well tissue culture plates with 100,000 cells/well and 200 μL media. Cells were incubated for 4 hr at 37° C. then ASK1 compounds were added using a HP 300e. Compounds were tested at 20 μM with 3 fold, 10 point dilution points then incubated for 1 hr at 37° C. A lysis buffer (Cell Signaling) was prepared with protease and phosphatase inhibitor and maintained at 4° C. until use. Media from cells was discarded and 120 μL of cold lysis buffer was added to the cells, the plate was shaken 4° C. for 1 hr. Lysate was mixed using Apricot liquid handler; aspirating up and down 16 times at high speed using 50 μL volume. […] Plates were then incubated on a plate shaker overnight at 4° C. Plates were washed 3× with MSD wash buffer and 50 μL of rabbit anti-pASK1 T838 antibody was added to the wells and incubated for 2 hr at room temperature on a plate shaker. Plates were then washed and 50 μL of goat anti-rabbit sulfa-tag (1:500 dilution) was added to wells, and incubated for 1 hr at room temperature on a plate shaker. […] Plates were immediately read on a MSD Instrument Reader where chemoluminecense signal was measured. Data was analyzed using Graph Pad or Genedata, the data was normalized and plotted, % activity versus log of compound concentration. The IC50 values were obtained from a 4 parameter fit.

ASK1/MAP3K5 = ASK1/MAP3K5 (Homo sapiens (Human), UniProt Q99683); assay: ASK1/MAP3K5 assay by Reaction Biology Corp.; assay type: biochemical
Protocol: ASK1/MAP3K5 was used as the protein kinase and 20 μM of myelin basic protein (MBP) and 10 μM ATP were used as the substrate.

[2] = 20 μM myelin basic protein (MBP), 10 μM ATP

ASK1/MAP3K5, sequence (Q99683 whole entry): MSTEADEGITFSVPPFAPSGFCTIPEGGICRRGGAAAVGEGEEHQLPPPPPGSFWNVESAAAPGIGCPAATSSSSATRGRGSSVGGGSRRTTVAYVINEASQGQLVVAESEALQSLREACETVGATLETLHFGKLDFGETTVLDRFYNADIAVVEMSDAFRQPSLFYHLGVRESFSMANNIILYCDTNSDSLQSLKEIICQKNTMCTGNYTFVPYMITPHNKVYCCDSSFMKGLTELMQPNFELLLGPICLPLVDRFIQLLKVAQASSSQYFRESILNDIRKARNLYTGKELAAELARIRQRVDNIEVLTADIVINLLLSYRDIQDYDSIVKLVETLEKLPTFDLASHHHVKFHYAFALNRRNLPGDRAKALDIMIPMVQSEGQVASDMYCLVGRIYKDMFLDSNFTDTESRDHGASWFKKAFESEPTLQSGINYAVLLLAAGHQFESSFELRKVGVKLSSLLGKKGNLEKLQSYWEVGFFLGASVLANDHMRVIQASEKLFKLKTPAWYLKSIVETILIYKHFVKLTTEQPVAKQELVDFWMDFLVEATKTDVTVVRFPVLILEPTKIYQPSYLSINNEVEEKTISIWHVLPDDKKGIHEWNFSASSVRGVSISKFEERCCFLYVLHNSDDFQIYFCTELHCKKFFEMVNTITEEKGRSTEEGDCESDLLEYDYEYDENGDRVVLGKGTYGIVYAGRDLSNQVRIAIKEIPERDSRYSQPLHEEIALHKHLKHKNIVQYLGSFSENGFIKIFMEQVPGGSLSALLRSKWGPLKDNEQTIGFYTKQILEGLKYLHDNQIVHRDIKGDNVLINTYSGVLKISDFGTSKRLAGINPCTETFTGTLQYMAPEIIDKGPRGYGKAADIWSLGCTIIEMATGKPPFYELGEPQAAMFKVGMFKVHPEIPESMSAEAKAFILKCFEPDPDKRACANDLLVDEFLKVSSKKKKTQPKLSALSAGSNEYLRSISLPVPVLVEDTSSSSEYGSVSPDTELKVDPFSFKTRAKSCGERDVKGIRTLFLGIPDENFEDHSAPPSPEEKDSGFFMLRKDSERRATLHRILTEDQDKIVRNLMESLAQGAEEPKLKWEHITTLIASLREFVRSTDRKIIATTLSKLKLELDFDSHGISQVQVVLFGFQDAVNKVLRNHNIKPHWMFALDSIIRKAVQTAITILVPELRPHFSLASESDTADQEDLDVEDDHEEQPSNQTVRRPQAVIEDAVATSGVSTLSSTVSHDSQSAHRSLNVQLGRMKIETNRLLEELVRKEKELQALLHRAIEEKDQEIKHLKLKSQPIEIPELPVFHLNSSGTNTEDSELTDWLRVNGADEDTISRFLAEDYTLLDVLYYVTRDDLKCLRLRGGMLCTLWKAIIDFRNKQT
ASK1 T838 auto phosphorylation in HEK-293T cells, sequence (Q99683 whole entry): as above

Compound | IC50 [1] [nM] | IC50 (ASK1/MAP3K5; [2]) [nM] | IC50 (ASK1/MAP3K5) [nM]
Cc1cc(-c2cc3c(cc2F)OCCCCn2cnnc2-c2cccc(n2)NC3=O)ccn1 [Example 54, 5^4-Fluoro-5^5-(2-methylpyridin-4-yl)-1^4H-6-oxa-3-aza-2(2,6)-pyridina-1(3,4)-triazola-5(1,2)-benzenacyclodecaphan-4-one] | < 1000 | < 100 | 
(S)-5^4-Bromo-10-methyl-1^4H-6-oxa-3-aza-2(2,6)-pyridina-1(3,4)-triazola-5(1,2)-benzenacyclodecaphan-4-one [Example 120] | < 1000 | < 100 | 
O=C1Nc2cccc(n2)-c2nncn2CCCCOc2cc(N3CCOCC3)ccc21 [Example 80, 5^4-Morpholino-1^4H-6-oxa-3-aza-2(2,6)-pyridina-1(3,4)-triazola-5(1,2)-benzenacyclodecaphan-4-one] | < 1000 | < 100 | 
O=C1Nc2cccc(n2)-c2nncn2CCCCOc2cc(F)c(-c3cncnc3)cc21 [Example 60, 5^4-Fluoro-5^5-(pyrimidin-5-yl)-1^4H-6-oxa-3-aza-2(2,6)-pyridina-1(3,4)-triazola-5(1,2)-benzenacyclodecaphan-4-one] | < 1000 | < 100 | 
C[C@H]1CCCOc2cc(F)c(-c3cncc(C(F)(F)F)c3)cc2C(=O)Nc2cccc(n2)-c2nncn21 [Example 111, (S)-5^4-Fluoro-10-methyl-5^5-(5-(trifluoromethyl)pyridin-3-yl)-1^4H-6-oxa-3-aza-2(2,6)-pyridina-1(3,4)-triazola-5(1,2)-benzenacyclodecaphan-4-one] | < 1000 | < 100 | 
N#Cc1cc2c(cc1F)OCCCCn1cnnc1-c1cccc(n1)NC2=O [Example 74, 5^4-Fluoro-4-oxo-1^4H-6-oxa-3-aza-2(2,6)-pyridina-1(3,4)-triazola-5(1,2)-benzenacyclodecaphane-55-carbonitrile] | < 1000 | < 100 | 
C[C@H]1CCOc2cc(F)c(-c3cccnc3F)cc2C(=O)Nc2cccc(n2)-c2nncn2C1 [Example 128, (S)-5^4-Fluoro-5^5-(2-fluoropyridin-3-yl)-9-methyl-1^4H-6-oxa-3-aza-2(2,6)-pyridina-1(3,4)-triazola-5(1,2)-benzenacyclodecaphan-4-one] | < 1000 |  | 
O=C1Nc2cccc(n2)-c2nncn2C/C=C/COc2ccc(N3CCOCC3)cc21 [Example 168, (E)-5^5-Morpholino-1^4H-6-oxa-3-aza-2(2,6)-pyridina-1(3,4)-triazola-5(1,2)-benzenacyclodecaphan-8-en-4-one] | < 1000 |  | < 100
CN1CCN(c2cc3c(cc2F)OCCCCn2cnnc2-c2cccc(n2)NC3=O)CC1 [Example 73, 5^4-Fluoro-5^5-(4-methylpiperazin-1-yl)-1^4H-6-oxa-3-aza-2(2,6)-pyridina-1(3,4)-triazola-5(1,2)-benzenacyclodecaphan-4-one] | < 1000 | < 100 | 
Cc1ccc(-c2cc3c(cc2F)OCCCCn2cnnc2-c2cccc(n2)NC3=O)cn1 [Example 57, 5^4-Fluoro-5^5-(6-methylpyridin-3-yl)-1^4H-6-oxa-3-aza-2(2,6)-pyridina-1(3,4)-triazola-5(1,2)-benzenacyclodecaphan-4-one] | < 1000 | < 100 | 
CN1CC=C(c2cc3c(cc2F)OCCCCn2cnnc2-c2cccc(n2)NC3=O)CC1 [Example 69, 5^4-Fluoro-5^5-(1-methyl-1,2,3,6-tetrahydropyridin-4-yl)-1^4H-6-oxa-3-aza-2(2,6)-pyridina-1(3,4)-triazola-5(1,2)-benzenacyclodecaphan-4-one] | < 1000 | < 100 | 
Cc1nccn1-c1ccc2c(c1)C(=O)Nc1cccc(n1)-c1nncn1CCCCO2 [Example 43, 5^5-(2-Methyl-1H-imidazol-1-yl)-1^4H-6-oxa-3-aza-2(2,6)-pyridina-1(3,4)-triazola-5(1,2)-benzenacyclodecaphan-4-one] | < 1000 | < 100 | 
C[C@@H]1CCCn2cnnc2-c2cccc(n2)NC(=O)c2cc(N3CCOCC3)ccc2O1 [Example 143, (R)-7-Methyl-5^5-morpholino-1^4H-6-oxa-3-aza-2(2,6)-pyridina-1(3,4)-triazola-5(1,2)-benzenacyclodecaphan-4-one] | < 1000 | < 100 | 
C[C@H]1CCOc2cc(F)c(-c3cnn4c3CN(C)CC4)cc2C(=O)Nc2cccc(n2)-c2nncn2C1 [Example 131, (S)-5^4-Fluoro-9-methyl-5^5-(5-methyl-4,5,6,7-tetrahydropyrazolo[1,5-a]pyrazin-3-yl)-1^4H-6-oxa-3-aza-2(2,6)-pyridina-1(3,4)-triazola-5(1,2)-benzenacyclodecaphan-4-one] | < 1000 |  | 
C[C@H]1CCCOc2cc(N3CCN(C)CC3)ccc2C(=O)Nc2cccc(n2)-c2nncn21 [Example 122, (S)-10-Methyl-5^4-(4-methylpiperazin-1-yl)-1^4H-6-oxa-3-aza-2(2,6)-pyridina-1(3,4)-triazola-5(1,2)-benzenacyclodecaphan-4-one] | < 1000 | < 100 | 
O=C1Nc2cccc(n2)-c2nncn2CCCCOc2cc(F)c(-c3cncc(C(F)(F)F)c3)cc21 [Example 58, 5^4-Fluoro-5^5-(5-(trifluoromethyl)pyridin-3-yl)-1^4H-6-oxa-3-aza-2(2,6)-pyridina-1(3,4)-triazola-5(1,2)-benzenacyclodecaphan-4-one] | < 1000 | < 100 | 
O=C1Nc2cccc(n2)-c2nncn2CCCCOc2cc(N3CCOCC3)c(F)cc21 [Example 87, 5^5-Fluoro-5^4-morpholino-1^4H-6-oxa-3-aza-2(2,6)-pyridina-1(3,4)-triazola-5(1,2)-benzenacyclodecaphan-4-one] | < 1000 | < 100 | 
Cc1cn(-c2cc3c(cc2F)OCC[C@H](C)Cn2cnnc2-c2cccc(n2)NC3=O)cn1 [Example 133, (S)-5^4-Fluoro-9-methyl-5^5-(4-methyl-1H-imidazol-1-yl)-1^4H-6-oxa-3-aza-2(2,6)-pyridina-1(3,4)-triazola-5(1,2)-benzenacyclodecaphan-4-one] | < 1000 |  | 
C[C@@H]1CCOc2cc(F)c(-c3cnn4c3CN(C)CC4)cc2C(=O)Nc2cccc(n2)-c2nncn2C1 [Example 132, (R)-5^4-Fluoro-9-methyl-5^5-(5-methyl-4,5,6,7-tetrahydropyrazolo[1,5-a]pyrazin-3-yl)-1^4H-6-oxa-3-aza-2(2,6)-pyridina-1(3,4)-triazola-5(1,2)-benzenacyclodecaphan-4-one] | < 1000 |  | 
C[C@H]1CCOc2cc(F)c(N3CCOCC3)cc2C(=O)Nc2cccc(n2)-c2nncn2C1 [Example 126, (S)-5^4-Fluoro-9-methyl-5^5-morpholino-1^4H-6-oxa-3-aza-2(2,6)-pyridina-1(3,4)-triazola-5(1,2)-benzenacyclodecaphan-4-one] | < 1000 |  | 
C[C@H]1CCCOc2cc(F)c(-c3ccncc3F)cc2C(=O)Nc2cccc(n2)-c2nncn21 [Example 109, (S)-5^4-Fluoro-5^5-(3-fluoropyridin-4-yl)-10-methyl-1^4H-6-oxa-3-aza-2(2,6)-pyridina-1(3,4)-triazola-5(1,2)-benzenacyclodecaphan-4-one] | < 1000 |  | 
C[C@H]1CCOc2cc(F)c(-c3ccc(F)nc3)cc2C(=O)Nc2cccc(n2)-c2nncn2C1 [Example 129, (S)-5^4-Fluoro-5^5-(6-fluoropyridin-3-yl)-9-methyl-1^4H-6-oxa-3-aza-2(2,6)-pyridina-1(3,4)-triazola-5(1,2)-benzenacyclodecaphan-4-one] | < 1000 |  | 
C[C@H]1CCCOc2cc(F)c(N3CCN(C)CC3)cc2C(=O)Nc2cccc(n2)-c2nncn21 [Example 105, (S)-5^4-Fluoro-10-methyl-5^5-(4-methylpiperazin-1-yl)-1^4H-6-oxa-3-aza-2(2,6)-pyridina-1(3,4)-triazola-5(1,2)-benzenacyclodecaphan-4-one] | < 1000 |  | 
CC(C)(C#N)c1ccc2c(c1)C(=O)Nc1cccc(n1)-c1nncn1CCCCO2 [Example 51, 2-Methyl-2-(4-oxo-1^4H-6-oxa-3-aza-2(2,6)-pyridina-1(3,4)-triazola-5(1,2)-benzenacyclodecaphane-5^5-yl)propanenitrile] | < 1000 |  | 
CN1CCn2ncc(-c3cc4c(cc3F)OCC/C=C\Cn3cnnc3-c3cccc(n3)NC4=O)c2C1 [Example 182, (Z)-5^4-Fluoro-5^5-(5-methyl-4,5,6,7-tetrahydropyrazolo[1,5-a]pyrazin-3-yl)-1^4H-6-oxa-3-aza-2(2,6)-pyridina-1(3,4)-triazola-5(1,2)-benzenacycloundecaphan-9-en-4-one] | < 1000 |  | 
CN(C)CCn1cc(-c2cc3c(cc2C(F)(F)F)OCCCCn2cnnc2-c2cccc(n2)NC3=O)cn1 [Example 77, 5^5-(1-(2-(Dimethylamino)ethyl)-1H-pyrazol-4-yl)-5^4-(trifluoromethyl)-1^4H-6-oxa-3-aza-2(2,6)-pyridina-1(3,4)-triazola-5(1,2)-benzenacyclodecaphan-4-one] | < 1000 |  | 
